The source of these data is ChEMBL document CHEMBL1147608, “SAR development of polycyclic guanine derivatives targeted to the discovery of a selective PDE5 inhibitor for treatment of erectile dysfunction” (Bioorg Med Chem Lett, 2004).

Assay [1] deals with T1, cGMP-specific 3',5'-cyclic phosphodiesterase (Homo sapiens, UniProt O76074). Briefly: Inhibition of human phosphodiesterase 5 at 100 nM.
For assay [2], the target named is T1, cGMP-specific 3',5'-cyclic phosphodiesterase.
Assay [3] addresses Phosphodiesterase 4 and 5 (PDE4 and PDE5) (Homo sapiens) (UniProt O76074+P27815+Q08499+Q07343+Q08493). Briefly: Relative inhibition of PDE4 and PDE5. Format: protein assay.
Assay [4] concerns the target Phosphodiesterase 3 and 5 (PDE3 and PDE5) (Homo sapiens) (UniProt O76074+Q14432+Q13370). Briefly: Relative inhibition of PDE3 and PDE5. In kind it is protein assay.
Assay [5] deals with Phosphodiesterase, PDE1/PDE5 (Homo sapiens) (UniProt O76074+P54750+Q01064+Q14123). Briefly: Realtive inhibition of PDE1 and PDE5. Format: protein assay.
For assay [6], the target named is Phosphodiesterase 2 and 5 (PDE2 and PDE5) (Homo sapiens) (UniProt O76074+O00408). Briefly: Relative inhibition of PDE2 and PDE5. In kind it is protein assay.

As usually defined, the inhibition is the change of the read-out against control, counted positive when it falls. Lower therefore signals a weak effect. For the molecule `CCN1C(=O)c2c(nc(Cc3ccccc3)n2Cc2cccc(OC)c2)N2C1=N[C@@H]1CCC[C@@H]12`, the inhibition in assay [1] was 14%.
For orientation: IC50 means the concentration needed to halve the response being measured. The low end stands for inhibition by little substance, the high end for a need for much substance. For `CCN1C(=O)c2c(nc(C(N)=O)n2Cc2ccc(OC)c(Cl)c2)N2C[C@@H](Cc3ccccc3)N=C12`, inhibition in assay [2] was half-maximal at 2.8 nM (IC50).
The same measure, in the same setting: to `CCN1C(=O)c2c(ncn2Cc2ccc(OC)cc2)N2C1=N[C@@H]1CCC[C@@H]12` belongs 55 nM; to `CCN1C(=O)c2c(nc(C(=O)OC)n2Cc2ccc(OC)cc2)N2C1=N[C@@H]1CCC[C@@H]12`, 6.8 nM; to `CCN1C(=O)c2c(nc(OC)n2Cc2ccc(O)c(Cl)c2)N2C1=N[C@@H]1CCC[C@@H]12`, 2 nM.
For `CCN1C(=O)c2c(nc(Cc3ccccc3)n2Cc2ccccc2C)N2C1=N[C@@H]1CCC[C@@H]12`, the inhibition in assay [1] came to 18%.
With `CCN1C(=O)c2c(nc(Cc3ccccc3)n2Cc2ccc(OC)c(Cl)c2)N2C1=N[C@@H]1CCC[C@@H]12`, in assay [2], the IC50 is 58 nM.
For `CCN1C(=O)c2c(nc(OC)n2Cc2ccc(OC)c(Cl)c2)N2C[C@@H](Cc3ccccc3)N=C12`, the Selectivity was found to be 394 in assay [3], 6250 in assay [4], 4380 in assay [5] and 6250 in assay [6]. Also, half-maximal inhibition in assay [2] (IC50) was put at 1.6 nM.
On to `CCN1C(=O)c2c(nc(OCc3ccccc3)n2Cc2ccc(O)c(Cl)c2)N2C[C@@H](Cc3ccccc3)N=C12`, for which the Selectivity came to 2170 in assay [3], 4760 in assay [4], 4760 in assay [5] and 4760 in assay [6]. In assay [2], this molecule yielded an IC50 of 2.1 nM.
On to `CCN1C(=O)c2c(nc(OC)n2Cc2ccc(OC)c(Br)c2)N2C1=N[C@@H]1CCC[C@@H]12`, for which the IC50 in assay [2] amounted to 2.8 nM.
On the same count and under the same terms, with `CCN1C(=O)c2c(nc(C#Cc3ccccc3)n2Cc2ccc(OC)cc2)N2C1=N[C@@H]1CCC[C@@H]12` the figure was 3.1 nM.
On the same count and under the same terms, with `CCN1C(=O)c2c(nc(C#Cc3ccccc3)n2Cc2ccc(O)cc2)N2C1=N[C@@H]1CCC[C@@H]12` the figure was 0.3 nM; with `CCOc1nc2c(n1Cc1ccc(OC)cc1)C(=O)N(CC)C1=N[C@@H]3CCC[C@@H]3N12`, 18 nM.
Regarding `CCN1C(=O)c2c(nc(OC)n2Cc2ccc(O)c(C#N)c2)N2C[C@@H](Cc3ccccc3)N=C12`, the IC50 in assay [2] amounted to 43 nM.
`CCN1C(=O)c2c(nc(C(N)=O)n2Cc2ccc(O)c(Cl)c2)N2C1=N[C@@H]1CCC[C@@H]12`: in assay [2], inhibition was half-maximal at 1.1 nM (IC50).
On the same count and under the same terms, to `CCN1C(=O)c2c(nc(OC)n2Cc2ccc(OC)c(Cl)c2)N2C1=N[C@@H]1CCC[C@@H]12` belongs 5 nM.
Same read-out and setting: with `CCSc1nc2c(n1Cc1ccc(OC)cc1)C(=O)N(CC)C1=N[C@@H]3CCC[C@@H]3N12` the figure was 13 nM; with `CCN1C(=O)c2c(nc(Cc3ccccc3)n2Cc2ccc(C)cc2)N2C1=N[C@@H]1CCC[C@@H]12`, 40 nM; with `CCN1C(=O)c2c(nc(C(N)=O)n2Cc2ccc(O)cc2)N2C1=N[C@@H]1CCC[C@@H]12`, 2.1 nM.
For the molecule `CCN1C(=O)c2c(nc(Cc3ccccc3)n2Cc2ccc(OC)cc2)N2C1=N[C@@H]1CCC[C@@H]12`, in assay [2], the IC50 was determined as 20 nM.
In assay [2], `CCN1C(=O)c2c(nc(C(=O)NC)n2Cc2ccc(OC)c(Cl)c2)N2C1=N[C@@H]1CCC[C@@H]12` registered an IC50 of 2.3 nM.
As for `CCN1C(=O)c2c(nc(Cc3ccccc3)n2Cc2ccc3ccccc3c2)N2C1=N[C@@H]1CCC[C@@H]12`, the inhibition in assay [1] is 32%.
The same measure, in the same setting: to `CCN1C(=O)c2c(nc(S(=O)(=O)CC)n2Cc2ccc(OC)cc2)N2C1=N[C@@H]1CCC[C@@H]12` belongs 31%.
Turning to `CCOc1nc2c(n1Cc1ccc(OC)c(Cl)c1)C(=O)N(CC)C1=N[C@@H]3CCC[C@@H]3N12`, half-maximal inhibition in assay [2] (IC50) required 6.5 nM.
Consider `CCOc1nc2c(n1Cc1ccc(O)c(Cl)c1)C(=O)N(CC)C1=N[C@@H]3CCC[C@@H]3N12`, for which the 50% inhibitory concentration (IC50) in assay [2] stood at 2.1 nM.
On the same count and under the same terms, to `CCN1C(=O)c2c(nc(Cc3ccccc3)n2Cc2ccc(N)cc2)N2C1=N[C@@H]1CCC[C@@H]12` belongs 550 nM; to `CCN1C(=O)c2c(nc(C#Cc3ccccc3)n2Cc2ccccc2)N2C1=N[C@@H]1CCC[C@@H]12`, 8 nM; to `CCN1C(=O)c2c(nc(C(N)=O)n2Cc2ccc(OC)cc2)N2C1=N[C@@H]1CCC[C@@H]12`, 4 nM.
The molecule `CCN1C(=O)c2c(nc(Cc3ccccc3)n2Cc2ccc([N+](=O)[O-])cc2)N2C1=N[C@@H]1CCC[C@@H]12` showed an inhibition in assay [1] of 8%.
Consider `CCN1C(=O)c2c(nc(Cc3ccccc3)n2Cc2ccc3c(c2)OCO3)N2C1=N[C@@H]1CCC[C@@H]12`, for which the IC50 in assay [2] came out at 46 nM.
For the molecule `CCN1C(=O)c2c(nc(OC)n2Cc2ccc(O)c(Br)c2)N2C[C@@H](Cc3ccccc3)N=C12`, the Selectivity in assay [3] amounted to 3770; in assay [4] it was 7690; in assay [5], 7690; in assay [6] it was 7690. The molecule further displayed an IC50 in assay [2] of 1.3 nM.
As for `CCN1C(=O)c2c(nc(C(N)=O)n2Cc2ccc(O)c(Cl)c2)N2C[C@@H](Cc3ccccc3)N=C12`, the Selectivity in assay [3] was 1730; in assay [4], 3330; in assay [5], 2600; in assay [6], 3330. The molecule also displayed an IC50 in assay [2] of 3 nM.
Regarding `CCN1C(=O)c2c(nc(N=[N+]=[N-])n2Cc2ccc(O)cc2)N2C1=N[C@@H]1CCC[C@@H]12`, in assay [2], the IC50 was 0.61 nM.
In assay [2], `CCN1C(=O)c2c(nc(C(F)(F)F)n2Cc2ccc(OC)cc2)N2C1=N[C@@H]1CCC[C@@H]12` yielded an IC50 of 48 nM.
For `CCN1C(=O)c2c(nc(Cc3ccccc3)n2Cc2cccc(Br)c2)N2C1=N[C@@H]1CCC[C@@H]12`, the inhibition in assay [1] was determined as 33%.
`CCN1C(=O)c2c(nc(Cc3ccccc3)n2Cc2ccc(Cl)cc2)N2C1=N[C@@H]1CCC[C@@H]12`: in assay [2], the IC50 amounted to 160 nM.
With `CCN1C(=O)c2c(nc(OC)n2Cc2ccc(OC)c(C#N)c2)N2C[C@@H](Cc3ccccc3)N=C12`, the Selectivity came out at 464 in assay [3], 909 in assay [4], 536 in assay [5] and 909 in assay [6]. The molecule further registered an IC50 in assay [2] of 11 nM.
In assay [2], `CCN1C(=O)c2c(nc(C(N)=O)n2Cc2ccc(OC)c(Br)c2)N2C1=N[C@@H]1CCC[C@@H]12` showed an IC50 of 1.5 nM.
`CCN1C(=O)c2[nH]c(Cc3ccccc3)nc2N2C1=N[C@@H]1CCC[C@@H]12` returned an IC50 in assay [2] of 39 nM.
For `CCOc1nc2c(n1Cc1ccc(O)cc1)C(=O)N(CC)C1=N[C@@H]3CCC[C@@H]3N12`, the IC50 in assay [2] stood at 0.9 nM.
Molecule `CCN1C(=O)c2c(nc(OC)n2Cc2ccc(O)c(Br)c2)N2C1=N[C@@H]1CCC[C@@H]12` yielded an IC50 in assay [2] of 1.6 nM.
The same measure, in the same setting: to `CCN1C(=O)c2c(ncn2Cc2ccc(O)c(Br)c2)N2C1=N[C@@H]1CCC[C@@H]12` belongs 6.3 nM.
In assay [2], `CCN1C(=O)c2c(nc(C#N)n2Cc2ccc(OC)cc2)N2C1=N[C@@H]1CCC[C@@H]12` returned an IC50 of 6.3 nM.
As to `CCN1C(=O)c2c(nc(OC)n2Cc2ccc(OC)c(Br)c2)N2C[C@@H](Cc3ccccc3)N=C12`, the Selectivity is 418 in assay [3], 4540 in assay [4], 4090 in assay [5] and 4540 in assay [6]. Also, the IC50 in assay [2] is 2.2 nM.
Regarding `CCN1C(=O)c2c(nc(N)n2Cc2ccc(O)cc2)N2C1=N[C@@H]1CCC[C@@H]12`, the IC50 in assay [2] was 22 nM. In other words, the double-digit nanomolar range.
With `CCSc1nc2c(n1Cc1ccc(O)cc1)C(=O)N(CC)C1=N[C@@H]3CCC[C@@H]3N12`, the IC50 in assay [2] is 1.8 nM.
The molecule `CCN1C(=O)c2c(nc(C(N)=O)n2Cc2ccc(O)c(Br)c2)N2C1=N[C@@H]1CCC[C@@H]12` returned a half-inhibitory concentration (IC50) in assay [2] of 0.9 nM.
`CCN1C(=O)c2c(nc(N(C)C)n2Cc2ccc(OC)cc2)N2C1=N[C@@H]1CCC[C@@H]12`: the inhibition in assay [1] came to 27%.
For the molecule `CCN1C(=O)c2c(nc(C#Cc3ccccc3)n2Cc2ccc(Cl)cc2)N2C1=N[C@@H]1CCC[C@@H]12`, the IC50 in assay [2] is 5 nM.
Turning to `CCN1C(=O)c2c(nc(C(=O)NC)n2Cc2ccc(O)c(Cl)c2)N2C1=N[C@@H]1CCC[C@@H]12`, the midpoint of inhibition in assay [2], the IC50, lay at 1.3 nM.
In assay [1], `CCN1C(=O)c2c(nc(Cc3ccccc3)n2Cc2cccc(C)c2)N2C1=N[C@@H]1CCC[C@@H]12` gave an inhibition of 26%.
Consider `CCN1C(=O)c2c(nc(Cc3ccccc3)n2Cc2cccc(Cl)c2)N2C1=N[C@@H]1CCC[C@@H]12`, for which, in assay [1], the inhibition stood at 26%.
On to `CCN1C(=O)c2c(ncn2Cc2ccc(OC)c(Br)c2)N2C1=N[C@@H]1CCC[C@@H]12`, for which the IC50 in assay [2] came to 6.5 nM.
`CCN1C(=O)c2c(nc(Cc3ccccc3)n2Cc2ccccc2)N2C1=N[C@@H]1CCC[C@@H]12` gave an IC50 in assay [2] of 130 nM.
Same read-out and setting: to `CCN1C(=O)c2c(nc(C(F)(F)F)n2Cc2ccc(O)cc2)N2C1=N[C@@H]1CCC[C@@H]12` belongs 7 nM; to `CCOc1nc2c(n1Cc1ccc(OC)c(Br)c1)C(=O)N(CC)C1=N[C@@H]3CCC[C@@H]3N12`, 5.4 nM.
With `CCN1C(=O)c2c(nc(Cc3ccccc3)n2Cc2ccc(C)c(Cl)c2)N2C1=N[C@@H]1CCC[C@@H]12`, the inhibition in assay [1] is 27%.
